Results: patent US20220233457A1 (DAEGU CATHOLIC UNIVERSITY INDUSTRY ACADEMIC COOPERATION …, priority 2021, published 2022)
Entries after “also recorded” stand apart in the source; their conditions may differ.

How the values were obtained:
RAW 264.7 cells = assay: Cytotoxicity, MTT assay; assay type: cell-based; settings: for concentration at which cell viability is lowered by cytotoxicity: MTT assay, treatment time not stated in Example 7; for melittin concentration at which cell viability was significantly decreased: RAW 264.7 cells, 0.1-4 μg/ml tested
[1] = tested on: mouse induced to have a cerebral aneurysm; assay: H&E staining of cerebral arteries (diameter, thickness) in animal model induced to have a cerebral aneurysm; assay type: in vivo; settings: compared to diseased group (D); via tail vein, 5 times every three days; brain harvested at week 4
Method: (§1) A male C57BL/6J mouse was purchased from Samtako Bio Korea, and, after acclimation for about 1 week, the healthy animals were housed in a polycarbonate cage with random allocation to each test group. Environmental condition for breeding includes a temperature of 22±3° C., relative humidity of 50±10%, lighting hour of 12 hours, and illuminance of 150 to 300 lux. The animals were allowed free access to food and water. Hypertension was induced by a high salt diet, unilateral nephrectomy, and subcutaneous pump infusion of angiotensin II.
(§2) Specifically, a male C57BL/6J mouse was anesthetized with isoflurane gas and the left kidney was removed by surgery. One week after the surgery, the mouse was fixed onto a nose cone, anesthetized with isoflurane gas by inhalation, and then fixed on a stereostatic system. By using a 10 μl Hamilton syringe, 10 μl of 1.0 U elastase solution was injected to the right cistern to induce cerebral aneurysm. For elastase injection, 1.0 U elastase was injected through a hole on the right skull, under anesthetization with isoflurane gas by inhalation, by pushing the syringe to a space of cerebrospinal fluid in the right bottom, 2.5 mm behind the bregma (parietal point) and 1.0 mm to the right of the center line, and elastase was injected to the depth of 5.0 min.
(§3) After that, to have a continuous infusion of angiotensin II, an osmotic pump was subcutaneously inserted (1000 ng/kg/min) and cerebral aneurysm was induced by performing a high salt diet (8% NaCl, Enbigo) for 14 days (FIG. 2).
To the all test groups, the pharmaceutical was administered in an amount of 0.1 ml. […]
According to the visualization of cell nucleus, cytoplasm, and extracellular matrix by H&E staining of cerebral artery tissues, a change in the structure and shape of the cerebral artery was analyzed. To examine a change in the brain arterial wall, an immunohistochemical microscopic image was scanned and the diameter and thickness of the artery were measured by using Case Viewer software.

MMP-9 = MMP-9 expression in cerebral arterial wall (IHC, real-time PCR, Western blot); assay type: in vivo, mouse; settings: compared to diseased group (D); for expression level of MMP-9 protein: Western blot; for MMP-9 expression in the cerebral arterial wall: immunohistochemistry staining, levels 0 to 2
Method: as §1, §2, §3
(§4) To the all test groups, the pharmaceutical was administered in an amount of 0.1 ml.
(§5) By using the brain tissues harvested in above Example 2, a change in the expression level of MMP-9 in the cerebral arterial wall was determined by immunohistochemistry (IHC) staining. The result was classified into level 0 to level 2 and subjected to statistical analysis, while it was measured by real-time PCR and Western blot.
(§6) For the real-time PCR performed in above Examples 4 to 6, the primers described in the following Table 1 were used.

MCP-1 = MCP-1 expression in cerebral arterial wall (IHC, real-time PCR, Western blot); assay type: in vivo, mouse; settings: compared to diseased group (D); for expression level of MCP-1 protein: Western blot; for expression level of MCP-1 in the cerebral arterial wall: immunohistochemistry staining, levels 0 to 2
Method: as §1, §2, §3, §4
as §5, with “MCP-1 and CD68” for “MMP-9”
as §6

[2] = tested on: mouse induced to have a cerebral aneurysm; assay: Verhoff Van Gieson staining, elastin content of cerebral arterial wall; assay type: in vivo; settings: healthy group 37.6±8.8%, diseased group 5.9±3.7%; via tail vein; week 4
Method: as §1
as §2, with “[…]. […]” for “min.”
Elastin content was analyzed by Verhoff Van Gieson staining technique.

NFκB = NFκB expression in cerebral arterial wall (real-time PCR, Western blot); assay type: in vivo, mouse; settings: compared to group induced to have cerebral aneurysm; for expression level of NFκB protein: Western blot; for expression level of NFκB gene: real-time PCR
TNF-α = TNF-α expression in cerebral arterial wall (IHC, real-time PCR, Western blot); assay type: in vivo, mouse; settings: for expression level of TNF-α protein: Western blot; for expression level of TNF-α protein / expression level of TNF-α gene: compared to group induced to have cerebral aneurysm; for expression level of TNF-α in cerebral arterial wall: immunohistochemistry staining, levels 0 to 2, compared to diseased group (D); for expression level of TNF-α gene: real-time PCR
Method: as §1, §2, §3, §4
as §5, with “TNF-α” for “MMP-9”, “blot assays.” for “blot.”
as §6

[3] = Stability of melittin solution on storage; assay type: physicochemical; settings: 0.36 mM (=1.0 mg/ml) melittin solution, 4° C. for 8 weeks
[4] = tested on: mouse induced to have a cerebral aneurysm; assay: Trichrome staining, collagen content of cerebral artery wall; assay type: in vivo; settings: via tail vein, week 4
Method: as §1
as §2, with “[…]. […]” for “min.”

CD68 = CD68 (macrophage marker) expression in cerebral arterial wall (IHC); assay type: in vivo, mouse; settings: immunohistochemistry staining, levels 0 to 2; compared to diseased group (D)
Method: as §1
Specifically, a male C57BL/6J mouse was anesthetized with isoflurane gas and the left kidney was removed by surgery. One week after the surgery, the mouse was fixed onto a nose cone, anesthetized with isoflurane gas by inhalation, and then fixed on a stereostatic system. By using a 10 μl Hamilton syringe, 10 μl of 1.0 U elastase solution was injected to the right cistern to induce cerebral aneurysm. […]
as §5, with “MCP-1 and CD68” for “MMP-9”

mouse blood = assay: Hemolysis test; assay type: cell-based; settings: at 50 μg/mL

| Compound | concentration at which cell viability is lowered by cytotoxicity (RAW 264.7 cells) [ng/mL] | thickness of cerebral arteries [1] | expression level of MMP-9 protein (MMP-9) | MMP-9 expression in the cerebral arterial wall (MMP-9) | expression level of MCP-1 protein (MCP-1) | expression level of MCP-1 in the cerebral arterial wall (MCP-1) | elastin content [2] [%] | expression level of NFκB protein (NFκB) | expression level of NFκB gene (NFκB) | expression level of TNF-α protein (TNF-α) | expression level of TNF-α in cerebral arterial wall (TNF-α) | expression level of TNF-α gene (TNF-α) | expression level of CD68 in the cerebral arterial wall (CD68) | other results |
| --- | --- | --- | --- | --- | --- | --- | --- | --- | --- | --- | --- | --- | --- | --- |
| CC[C@H](C)[C@H](NC(=O)CN)C(=O)NCC(=O)N[C@@H](C)C(=O)N[C@H](C(=O)N[C@@H](CC(C)C)C(=O)N[C@@H](CCCCN)C(=O)N[C@H](C(=O)N[C@@H](CC(C)C)C(=O)N[C@H](C(=O)N[C@H](C(=O)NCC(=O)N[C@@H](CC(C)C)C(=O)N1CCC[C@H]1C(=O)N[C@@H](C)C(=O)N[C@@H](CC(C)C)C(=O)N[C@H](C(=O)N[C@@H](CO)C(=O)N[C@@H](Cc1c[nH]c2ccccc12)C(=O)N[C@H](C(=O)N[C@@H](CCCCN)C(=O)N[C@@H](CCCNC(=N)N)C(=O)N[C@@H](CCCCN)C(=O)N[C@@H](CCCNC(=N)N)C(=O)N[C@@H](CCC(N)=O)C(=O)N[C@@H](CCC(N)=O)C(N)=O)[C@@H](C)CC)[C@@H](C)CC)[C@@H](C)O)[C@@H](C)O)C(C)C)C(C)C [MEL, melittin] | ≥ 500 | increase | lower | suppressed | lower | suppressed | 19.7±7.8 | lower | lower | lower | suppressed | lower | suppressed | stability of solution [3]: stably maintained; collagen content compared to the diseased group (D) ([4]; statistical comparison with diseased group): no statistical difference |
| MeLioN: iron oxide nanoparticle loaded with melittin, formed by linking iron oxide nanoparticle, L-arginine, and melittin | > 4000 | increase; also recorded: significantly greater | lower | suppressed | lower | suppressed | 34.9±6.2 | lower | lower | lower | suppressed | lower | suppressed | melittin concentration at which cell viability was significantly decreased (RAW 264.7 cells; 12 h treatment): > 4 µg/mL; melittin concentration at which cell viability was significantly decreased (RAW 264.7 cells; 24 h treatment): > 4 µg/mL; diameter of cerebral arteries [1]: statistically significant decrease; also recorded: significantly smaller; expression level of MMP-9 gene (MMP-9; real-time PCR): lower; expression level of MCP-1 gene (MCP-1; real-time PCR): lower; Hemolysis (mouse blood): approximately 10%; collagen content ([4]; normal group 8.7±3.8%, diseased group 32.0±5.5%): 12.6±5.1% |
